Data taken from the NIST ThermoML archive (doi:10.1016/j.jct.2006.03.021).

Assay: molar heat capacity at constant pressure
Details: 101.33 kPa, Crystal, Vacuum adiabatic calorimetry

O.OC[C@H]1O[C@@H](O[C@H]2O[C@H](CO)[C@@H](O)[C@H](O)[C@H]2O)[C@H](O)[C@@H](O)[C@@H]1O [α,β-trehalose monohydrate]
Details | molar heat capacity at constant pressure [J/K/mol]
12.15 K | 6.701
12.87 K | 6.35
13.89 K | 7.774
15 K | 9.56
15.06 K | 9.688
16.13 K | 11.54
17.15 K | 13.35
18.14 K | 15.21
19.1 K | 17.06
20 K | 18.85
20.02 K | 18.86
20.99 K | 20.81
21.98 K | 22.87
22.97 K | 24.93
23.99 K | 27.06
25.09 K | 29.37
26.28 K | 31.89
27.52 K | 34.52
28.79 K | 37.22
30 K | 39.76
30.14 K | 40.07
31.48 K | 42.93
32.83 K | 45.73
34.23 K | 48.62
35.64 K | 51.52
37.04 K | 54.43
38.44 K | 57.19
39.85 K | 59.97
40 K | 60.3
41.25 K | 62.71
42.67 K | 65.48
44.14 K | 68.28
45.66 K | 71.1
47.22 K | 74
48.83 K | 76.91
50 K | 78.98
50.46 K | 79.86
52.14 K | 82.8
53.84 K | 85.77
55.55 K | 88.73
56.47 K | 90.18
58.33 K | 93.36
60 K | 96.14
60.17 K | 96.48
62 K | 99.53
63.81 K | 102.56
65.62 K | 105.58
67.43 K | 108.53
69.25 K | 111.51
70 K | 112.73
71.08 K | 114.46
72.92 K | 117.44
74.76 K | 120.43
76.6 K | 123.41
78.42 K | 126.41
80 K | 128.94
80.24 K | 129.3
82.05 K | 132.24
83.88 K | 135.15
85.74 K | 138.11
87.62 K | 141.12
89.52 K | 144.11
90 K | 144.87
91.42 K | 147.15
93.33 K | 150.17
95.28 K | 153.24
97.28 K | 156.4
99.29 K | 159.5
100 K | 160.59
101.26 K | 162.58
103.21 K | 165.61
105.12 K | 168.61
107.01 K | 171.53
108.87 K | 174.41
110 K | 176.15
110.71 K | 177.24
112.52 K | 180.05
114.31 K | 182.82
116.08 K | 185.5
117.84 K | 188.16
119.57 K | 190.8
120 K | 191.54
121.29 K | 193.41
122.99 K | 196.08
124.68 K | 198.72
126.4 K | 201.25
128.14 K | 203.9
129.89 K | 206.59
130 K | 206.76
131.7 K | 209.4
133.54 K | 212.03
135.4 K | 214.95
137.31 K | 217.83
139.29 K | 220.87
140 K | 221.8
141.32 K | 223.89
143.36 K | 226.95
145.42 K | 229.87
147.49 K | 232.93
149.55 K | 235.92
150 K | 236.64
151.6 K | 238.94
153.65 K | 242.05
155.7 K | 244.94
157.76 K | 248.08
159.82 K | 250.99
160 K | 251.27
161.88 K | 253.84
163.94 K | 256.98
166.01 K | 260.01
168.09 K | 262.9
170 K | 265.74
170.15 K | 265.9
172.2 K | 268.93
174.23 K | 271.83
176.25 K | 274.9
178.26 K | 277.71
180 K | 280.12
180.26 K | 280.35
182.24 K | 283.42
184.22 K | 286.13
186.18 K | 288.99
188.13 K | 291.83
190 K | 294.51
190.07 K | 294.5
191.99 K | 297.33
193.92 K | 300.26
195.86 K | 302.94
197.82 K | 305.58
199.78 K | 308.6
200 K | 308.94
201.75 K | 311.51
203.73 K | 314.35
205.72 K | 317.15
207.72 K | 320.03
209.73 K | 323.23
210 K | 323.42
211.76 K | 326.07
213.79 K | 328.83
215.82 K | 331.74
217.85 K | 335.14
219.89 K | 337.71
220 K | 337.95
221.94 K | 340.79
223.97 K | 343.7
226.01 K | 346.53
228.06 K | 349.68
230 K | 352.54
230.09 K | 352.7
232.12 K | 355.67
234.16 K | 358.66
236.2 K | 361.46
238.24 K | 364.57
240 K | 367.19
240.3 K | 367.64
242.38 K | 370.71
244.44 K | 373.64
246.49 K | 376.59
248.54 K | 379.8
250 K | 381.89
250.58 K | 382.78
252.6 K | 385.78
254.62 K | 388.6
256.63 K | 391.62
258.63 K | 394.61
260 K | 396.69
260.63 K | 397.5
262.91 K | 400.41
264.59 K | 403.48
266.56 K | 406.35
268.52 K | 409.35
270 K | 411.55
270.48 K | 412.29
272.46 K | 415.5
274.46 K | 418.09
276.47 K | 421.07
278.49 K | 424.17
280 K | 426.56
280.52 K | 427.38
282.54 K | 430.46
284.56 K | 433.56
286.58 K | 436.49
288.58 K | 439.62
290 K | 441.71
290.63 K | 443
292.65 K | 445.73
294.68 K | 448.7
296.7 K | 451.81
298.15 K | 454.11
298.72 K | 454.95
300 K | 456.92
300.74 K | 457.97
